Our source for the IC50, Hill coefficient and Ratio values is ChEMBL document CHEMBL1129927, “Further evidence for a dopamine reuptake pharmacophore. The effect of N-methylation on Threo-methylphenidate and its analogs” (Bioorg Med Chem Lett, 1997).

In test [1] the target is Sodium-dependent dopamine transporter (Rattus norvegicus, UniProt P23977). Put plainly: The compound was tested for its affinity at the rat striatal dopamine transporter by the displacement of [3H]WIN-35428.
Test [2] can be described thus: Hill coefficient was determined.
Test [3] is described as follows: Ratio of inhibitory concentration of compound 5d to 6d.

Sodium-dependent dopamine transporter, sequence (P23977 whole entry): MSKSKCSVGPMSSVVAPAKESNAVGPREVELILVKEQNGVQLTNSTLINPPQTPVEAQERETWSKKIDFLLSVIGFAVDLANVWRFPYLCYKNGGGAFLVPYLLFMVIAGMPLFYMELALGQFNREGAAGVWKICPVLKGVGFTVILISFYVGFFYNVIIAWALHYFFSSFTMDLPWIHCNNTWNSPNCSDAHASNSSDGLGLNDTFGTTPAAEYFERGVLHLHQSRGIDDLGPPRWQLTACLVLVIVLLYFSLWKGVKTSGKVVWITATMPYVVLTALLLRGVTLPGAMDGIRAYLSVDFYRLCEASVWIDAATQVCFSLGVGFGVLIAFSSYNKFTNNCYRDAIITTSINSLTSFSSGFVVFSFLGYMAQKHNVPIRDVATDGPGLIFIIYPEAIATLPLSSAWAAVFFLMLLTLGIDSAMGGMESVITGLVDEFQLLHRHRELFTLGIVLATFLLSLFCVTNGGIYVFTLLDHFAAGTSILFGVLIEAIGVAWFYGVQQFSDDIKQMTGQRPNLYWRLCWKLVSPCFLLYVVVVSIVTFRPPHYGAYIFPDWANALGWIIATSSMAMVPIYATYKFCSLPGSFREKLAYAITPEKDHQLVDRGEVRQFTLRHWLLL

`COC(=O)[C@H](c1ccc(O)cc1)[C@H]1CCCCN1` had an IC50 in test [1] of 98 nM. The same molecule yielded a Hill coefficient in test [2] of 1.07.

As for `COC(=O)[C@H](c1cccc(C)c1)[C@H]1CCCCN1`, the 50% inhibitory concentration (IC50) in test [1] stood at 21.4 nM. Besides, the Hill coefficient in test [2] is 1.01.

The molecule `COC(=O)[C@H](c1ccc(C)cc1)[C@H]1CCCCN1C` gave an IC50 in test [1] of 139 nM. Also, the Hill coefficient in test [2] was determined as 1.03.

As to `COC(=O)[C@H](c1cccc(C)c1)[C@H]1CCCCN1C`, in test [1], the half-maximal inhibitory concentration (IC50) amounted to 108 nM. In test [2], this molecule yielded a Hill coefficient of 1.

`COC(=O)[C@H](c1ccccc1)[C@H]1CCCCN1` registered a Hill coefficient in test [2] of 0.9.

Regarding `COC(=O)[C@H](c1cccc(Cl)c1)C1CCCCN1` (stereo not given in full), in test [1], the IC50 stood at 5.1 nM. In test [2], this molecule yielded a Hill coefficient of 0.95.

The molecule `COC(=O)[C@H](c1cccc(Cl)c1)[C@H]1CCCCN1C` gave an IC50 in test [1] of 161 nM. Further, the Hill coefficient in test [2] came out at 0.96.

Turning to `COC(=O)[C@H](c1ccccc1)[C@H]1CCCCN1C`, the half-inhibitory concentration (IC50) in test [1] was 500 nM. For the same molecule, in test [2], the Hill coefficient was 1.

The molecule `COC(=O)[C@H](c1ccc(C)cc1)C1CCCCN1` (stereo not given in full) displayed a half-inhibitory concentration (IC50) in test [1] of 33 nM. In addition, the Hill coefficient in test [2] worked out at 1.05. Besides, in test [3], the Ratio came to 4.2.

The molecule `COC(=O)[C@H](c1ccc(O)cc1)[C@H]1CCCCN1C` registered an IC50 in test [1] of 1220 nM. In test [2], this molecule registered a Hill coefficient of 1.06.

By IC50 is commonly meant the concentration that inhibits the measured activity by half. A low value points to greater potency in that assay. What is called Hill coefficient is a measure of the steepness of the concentration-response curve.
